Experimental data reported in patent publication US20090012103A1, “SUBSTITUTED HETEROCYCLIC COMPOUNDS” (priority 2007, published 2009).

Legend:
[1] = target: wild-type human cardiac sodium channel, hNav1.5 (Homo sapiens, UniProt Q14524); test: Late INa screening assay (late sodium current, PatchXpress whole cell patch clamp); assay type: cell-based; details: for inhibition at 10 µM: compound at 10 μM, read-out: Late INa % blk; for effect on late sodium current: result in words
[2] = target: hERG potassium channel (Homo sapiens, UniProt Q12809); test: hERG screening assay (PatchXpress patch clamp, CHO cell line)
Chain of hERG potassium channel (Q12809 whole entry): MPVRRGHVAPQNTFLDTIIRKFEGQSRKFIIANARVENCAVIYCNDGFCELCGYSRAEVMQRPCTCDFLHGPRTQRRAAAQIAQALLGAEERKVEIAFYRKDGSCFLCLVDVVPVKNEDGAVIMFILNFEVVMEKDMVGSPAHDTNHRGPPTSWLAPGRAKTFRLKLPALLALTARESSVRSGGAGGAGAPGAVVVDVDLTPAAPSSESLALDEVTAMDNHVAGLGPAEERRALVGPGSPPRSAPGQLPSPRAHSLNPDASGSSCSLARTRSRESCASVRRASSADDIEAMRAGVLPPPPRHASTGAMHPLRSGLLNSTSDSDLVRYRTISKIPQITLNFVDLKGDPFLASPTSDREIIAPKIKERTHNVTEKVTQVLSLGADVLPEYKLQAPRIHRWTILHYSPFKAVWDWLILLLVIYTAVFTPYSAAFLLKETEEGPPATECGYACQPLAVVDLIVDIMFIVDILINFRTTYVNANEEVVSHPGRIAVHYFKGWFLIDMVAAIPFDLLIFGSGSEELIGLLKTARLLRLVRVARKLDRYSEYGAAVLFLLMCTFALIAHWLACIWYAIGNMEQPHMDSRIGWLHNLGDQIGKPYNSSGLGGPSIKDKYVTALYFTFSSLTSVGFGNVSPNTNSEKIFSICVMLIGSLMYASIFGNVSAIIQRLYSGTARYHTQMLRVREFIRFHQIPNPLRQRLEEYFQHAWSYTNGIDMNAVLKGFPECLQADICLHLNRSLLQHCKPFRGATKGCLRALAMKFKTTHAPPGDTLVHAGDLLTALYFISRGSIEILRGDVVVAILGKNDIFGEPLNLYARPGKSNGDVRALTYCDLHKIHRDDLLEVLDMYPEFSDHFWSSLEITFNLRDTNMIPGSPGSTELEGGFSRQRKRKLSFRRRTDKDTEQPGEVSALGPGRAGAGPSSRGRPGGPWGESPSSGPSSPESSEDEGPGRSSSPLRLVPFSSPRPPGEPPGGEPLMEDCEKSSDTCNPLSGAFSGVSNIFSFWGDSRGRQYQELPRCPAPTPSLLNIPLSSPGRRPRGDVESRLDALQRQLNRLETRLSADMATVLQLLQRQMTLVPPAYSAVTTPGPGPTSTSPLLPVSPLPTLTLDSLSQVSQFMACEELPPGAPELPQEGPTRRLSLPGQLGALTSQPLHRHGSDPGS

Chain of wild-type human cardiac sodium channel, hNav1.5 (Q14524 whole entry): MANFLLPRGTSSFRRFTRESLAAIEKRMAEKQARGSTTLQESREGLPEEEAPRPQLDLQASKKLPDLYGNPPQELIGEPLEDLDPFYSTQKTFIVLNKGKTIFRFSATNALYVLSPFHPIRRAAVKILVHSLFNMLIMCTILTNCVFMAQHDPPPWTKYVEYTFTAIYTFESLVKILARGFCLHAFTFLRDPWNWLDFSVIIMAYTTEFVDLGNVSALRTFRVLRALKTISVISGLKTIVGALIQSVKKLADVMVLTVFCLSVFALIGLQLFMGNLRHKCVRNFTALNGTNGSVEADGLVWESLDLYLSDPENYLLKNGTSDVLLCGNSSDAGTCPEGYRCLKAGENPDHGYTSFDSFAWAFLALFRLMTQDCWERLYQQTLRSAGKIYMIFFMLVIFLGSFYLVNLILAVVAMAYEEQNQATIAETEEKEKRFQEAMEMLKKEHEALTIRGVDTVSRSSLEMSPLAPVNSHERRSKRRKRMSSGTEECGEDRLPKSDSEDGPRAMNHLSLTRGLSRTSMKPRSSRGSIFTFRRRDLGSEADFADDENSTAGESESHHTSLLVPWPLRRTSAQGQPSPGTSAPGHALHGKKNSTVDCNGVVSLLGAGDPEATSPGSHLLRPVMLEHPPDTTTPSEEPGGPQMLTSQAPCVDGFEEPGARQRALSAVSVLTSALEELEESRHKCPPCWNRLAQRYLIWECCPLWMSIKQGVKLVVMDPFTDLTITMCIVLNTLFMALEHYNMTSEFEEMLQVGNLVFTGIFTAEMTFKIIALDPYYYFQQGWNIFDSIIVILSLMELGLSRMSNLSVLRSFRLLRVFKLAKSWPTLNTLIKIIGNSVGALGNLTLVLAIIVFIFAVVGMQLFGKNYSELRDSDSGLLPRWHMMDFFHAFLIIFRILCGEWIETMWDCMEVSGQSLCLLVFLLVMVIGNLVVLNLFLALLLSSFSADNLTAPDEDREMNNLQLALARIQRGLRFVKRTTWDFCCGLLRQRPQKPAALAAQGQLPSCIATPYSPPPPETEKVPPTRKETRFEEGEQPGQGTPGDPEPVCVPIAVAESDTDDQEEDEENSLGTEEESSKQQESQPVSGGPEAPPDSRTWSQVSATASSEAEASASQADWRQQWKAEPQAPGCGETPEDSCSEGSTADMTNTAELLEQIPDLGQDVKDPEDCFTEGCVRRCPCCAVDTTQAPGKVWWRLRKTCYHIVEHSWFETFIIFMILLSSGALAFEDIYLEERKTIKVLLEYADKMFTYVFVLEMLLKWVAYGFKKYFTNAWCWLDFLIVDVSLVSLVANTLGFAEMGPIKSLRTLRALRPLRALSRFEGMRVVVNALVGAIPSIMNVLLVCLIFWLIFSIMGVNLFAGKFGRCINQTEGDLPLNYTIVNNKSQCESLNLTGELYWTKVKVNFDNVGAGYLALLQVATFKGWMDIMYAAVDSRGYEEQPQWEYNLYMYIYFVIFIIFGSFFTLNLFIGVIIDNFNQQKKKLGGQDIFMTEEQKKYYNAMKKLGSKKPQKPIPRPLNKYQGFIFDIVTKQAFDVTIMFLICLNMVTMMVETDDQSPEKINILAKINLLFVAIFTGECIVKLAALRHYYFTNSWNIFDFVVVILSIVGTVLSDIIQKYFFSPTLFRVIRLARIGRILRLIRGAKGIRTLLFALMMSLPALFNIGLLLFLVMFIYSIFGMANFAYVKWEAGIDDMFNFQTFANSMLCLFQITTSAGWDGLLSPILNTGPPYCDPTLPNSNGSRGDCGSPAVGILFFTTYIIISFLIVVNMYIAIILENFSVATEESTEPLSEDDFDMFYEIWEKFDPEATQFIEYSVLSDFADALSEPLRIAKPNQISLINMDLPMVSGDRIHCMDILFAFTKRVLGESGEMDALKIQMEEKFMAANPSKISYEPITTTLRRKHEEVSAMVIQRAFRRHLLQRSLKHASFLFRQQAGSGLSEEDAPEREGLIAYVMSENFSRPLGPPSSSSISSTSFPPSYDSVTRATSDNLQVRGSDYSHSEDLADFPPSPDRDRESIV

| Compound | inhibition at 10 µM [1] [%] | hERG Patch Clamp hERG % blk ([2]; 1 μM) [%] | hERG Patch Clamp hERG % blk ([2]; 10 μM) [%] | effect on late sodium current [1] |
| --- | --- | --- | --- | --- |
| CCOC(=O)C1=C(C(C)C)NC(C(C)C)=C(C(=O)OCC)C1c1ccc(Br)s1 [PT-183, diethyl 4-(5-bromothiophen-2-yl)-2,6-diisopropyl-1,4-dihydropyridine-3,5-dicarboxylate] | 54 | 10.0 | 10.0 | – |
| CC1=C(C(=O)NCc2ccccc2)C(c2ccsc2)C2=C(CCCC2=O)N1 (stereo not drawn) [PT-178, N-benzyl-2-methyl-5-oxo-4-(thiophen-3-yl)-1,4,5,6,7,8-hexahydroquinoline-3-carboxamide] | 0.3 | 11.5 | 30.0 | – |
| CC1=C(C(=O)OCc2ccccc2)C(c2c3ccccc3cc3ccccc23)n2nnnc2N1 (stereo not drawn) [PT-039, benzyl 7-(anthracen-9-yl)-5-methyl-4,7-dihydrotetrazolo[1,5-a]pyrimidine-6-carboxylate] | 82.1 | 10.0 | 27.5 | – |
| CC1=C(C(=O)OCc2ccccc2)C(c2occc2-c2ccc(F)cc2)n2nnnc2N1 (stereo not drawn) [PT-396, benzyl 7-(3-(4-fluorophenyl)furan-2-yl)-5-methyl-4,7-dihydrotetrazolo[1,5-a]pyrimidine-6-carboxylate] | 80.7 | 10.0 | 32.0 | – |
| CC1=C(C(=O)OCc2ccccc2)C(c2sccc2-c2ccc(F)cc2)n2nnnc2N1 (stereo not drawn) [PT-397, benzyl 7-(3-(4-fluorophenyl)thiophen-2-yl)-5-methyl-4,7-dihydrotetrazolo[1,5-a]pyrimidine-6-carboxylate] | 69.1 | 10.0 | 25.0 | – |
| CCCC1=C(C(=O)OCC)C(c2ccsc2)C2=C(CC(c3ccccc3)CC2=O)N1 (stereo not drawn) [PT-149, ethyl 5-oxo-7-phenyl-2-propyl-4-(thiophen-3-yl)-1,4,5,6,7,8-hexahydroquinoline-3-carboxylate] | 71.5 | 24.3 | 67.0 | – |
| COC(=O)c1ccc(-c2n[nH]c3c2C(c2cccc4ccccc24)C2=C(COC2=O)N3)cc1 (stereo not drawn) [PT-085, methyl 4-(4-(naphthalen-1-yl)-5-oxo-4,5,7,8-tetrahydro-1H-furo[3,4-b]pyrazolo[4,3-e]pyridin-3-yl)benzoate] | 9.1 | 34.0 | 44.5 | – |
| CCOC(=O)C1=C(C)Nc2nnnn2C1c1ccccc1-n1ccnc1.Cl (stereo not drawn) [PT-476, ethyl 7-(2-(1H-imidazol-1-yl)phenyl)-5-methyl-4,7-dihydrotetrazolo[1,5-a]pyrimidine-6-carboxylate hydrochloride] | 2.6 | 17.5 | 23.0 | – |
| CCOC(=O)C1=C(C)Nc2nccn2C1c1ccc2ccccc2c1 (stereo not drawn) [PT-086, ethyl 7-methyl-5-(naphthalen-2-yl)-5,8-dihydroimidazo[1,2-a]pyrimidine-6-carboxylate] | 38.8 | 13.5 | 57.5 | – |
| CC1=C(C(=O)OCc2ccccc2)C(c2nccs2)n2nccc2N1 (stereo not drawn) [PT-363, benzyl 5-methyl-7-(thiazol-2-yl)-4,7-dihydropyrazolo[1,5-a]pyrimidine-6-carboxylate] | 40.9 | 10.0 | 19.5 | – |
| CCOC(=O)C1=C(CC)Nc2nnnn2C1c1cccc2ccccc12 (stereo not drawn) [PT-010, ethyl 5-ethyl-7-(naphthalen-1-yl)-4,7-dihydrotetrazolo[1,5-a]pyrimidine-6-carboxylate] | 36.1 | 12.5 | 30.0 | – |
| CC1=C(C(=O)OCc2ccccc2)C(c2sc3ccccc3c2C)n2nnnc2N1 (stereo not drawn) [PT-044, benzyl 5-methyl-7-(3-methylbenzo[b]thiophen-2-yl)-4,7-dihydrotetrazolo[1,5-a]pyrimidine-6-carboxylate] | 70.7 | 16.5 | 40.0 | – |
| CC(=O)c1ccc(-c2ccccc2C2C(C(=O)OCc3ccccc3)=C(C)Nc3nnnn32)cc1 (stereo not drawn) [PT-415, benzyl 7-(4′-acetylbiphenyl-2-yl)-5-methyl-4,7-dihydrotetrazolo[1,5-a]pyrimidine-6-carboxylate] | 75.4 | 10.5 | 38.5 | – |
| CC1=C(C(=O)N2CCC(c3ccccc3)CC2)C(c2ccsc2)C2=C(CCCC2=O)N1 (stereo not drawn) [PT-163, 2-methyl-3-(4-phenylpiperidine-1-carbonyl)-4-(thiophen-3-yl)-4,6,7,8-tetrahydroquinolin-5(1H)-one] | – | 15.0 | 53.5 | potentiated late sodium current |
| CCOC(=O)C1=C(C)NC(C)=C(C(=O)OCC)C1c1cc2ccccc2o1 [PT-122, diethyl 4-(benzofuran-2-yl)-2,6-dimethyl-1,4-dihydropyridine-3,5-dicarboxylate] | 80.3 | 15.5 | 55.0 | – |
| COC(=O)C1=C(C)Nc2nnnn2C1c1cccc2ccccc12 (stereo not drawn) [PT-512, methyl 5-methyl-7-(naphthalen-1-yl)-4,7-dihydrotetrazolo[1,5-a]pyrimidine-6-carboxylate] | 26.6 | 10.5 | 14.0 | – |
| CCOC(=O)C1=C(C)Nc2nnnn2C1c1ccccc1-n1ccnc1C.Cl (stereo not drawn) [PT-457, ethyl 5-methyl-7-(2-(2-methyl-1H-imidazol-1-yl)phenyl)-4,7-dihydrotetrazolo[1,5-a]pyrimidine-6-carboxylate hydrochloride] | 12.6 | 10.0 | 21.0 | – |
| CC1=C(C(=O)OCc2ccccc2)C(c2c(Br)sc3ccccc23)n2nnnc2N1 (stereo not drawn) [PT-386, benzyl 7-(2-bromobenzo[b]thiophen-3-yl)-5-methyl-4,7-dihydrotetrazolo[1,5-a]pyrimidine-6-carboxylate] | 79.2 | 10.0 | 16.5 | – |
| CC1=C(C(=O)O[C@@H](C)c2ccccc2)[C@@H](c2cccc3ccccc23)n2nnnc2N1 [PT-050, (R)-((S)-1-phenylethyl) 5-methyl-7-(naphthalen-1-yl)-4,7-dihydrotetrazolo[1,5-a]pyrimidine-6-carboxylate] | 94 | 10.0 | 53.5 | – |
| CCOC(=O)C1=C(C)Nc2[nH]ncc2C1c1ccccc1Br (stereo not drawn) [PT-448, ethyl 4-(2-bromophenyl)-6-methyl-4,7-dihydro-1H-pyrazolo[3,4-b]pyridine-5-carboxylate] | 33.6 | 10.0 | 57.5 | – |
| CC1=C(C(=O)OCc2ccccc2)C(c2ccccc2-c2ccc(NS(C)(=O)=O)cc2)c2cn[nH]c2N1 (stereo not drawn) [PT-366, benzyl 6-methyl-4-(4′-(methylsulfonamido)biphenyl-2-yl)-4,7-dihydro-1H-pyrazolo[3,4-b]pyridine-5-carboxylate] | 87.8 | 28.0 | 92.0 | – |
| CC1=C(C(=O)N2CCN(c3ccccc3)CC2)C(c2ccc3ccccc3c2)C2=C(CCCC2=O)N1 (stereo not drawn) [PT-165, 2-methyl-4-(naphthalen-2-yl)-3-(4-phenylpiperazine-1-carbonyl)-4,6,7,8-tetrahydroquinolin-5(1H)-one] | – | 30.5 | 64.5 | potentiated late sodium current |
| CC1=C(C(=O)OCc2ccccc2)C(c2csc3ccccc23)n2nnnc2N1 (stereo not drawn) [PT-042, benzyl 7-(benzo[b]thiophen-3-yl)-5-methyl-4,7-dihydrotetrazolo[1,5-a]pyrimidine-6-carboxylate] | 76.5 | 11.0 | 52.5 | – |
| CCOC(=O)C1=C(C)NC2=C(C(=O)CCC2)C1c1cccc2ncccc12 (stereo not drawn) [PT-140, ethyl 2-methyl-5-oxo-1,4,5,6,7,8-hexahydro-4,5′-biquinoline-3-carboxylate] | 6.3 | 13.5 | 34.5 | – |
| COc1ccc2ccccc2c1C1C(C(=O)OCc2ccccc2)=C(C)Nc2nnnn21 (stereo not drawn) [PT-030, benzyl 7-(2-methoxynaphthalen-1-yl)-5-methyl-4,7-dihydrotetrazolo[1,5-a]pyrimidine-6-carboxylate] | 66.5 | 10.5 | 34.5 | – |
| CC1=C(C(=O)OC(C)C)C(c2cccc3ccccc23)n2nnnc2N1 (stereo not drawn) [PT-021, isopropyl 5-methyl-7-(naphthalen-1-yl)-4,7-dihydrotetrazolo[1,5-a]pyrimidine-6-carboxylate] | 48.2 | 13.0 | 43.5 | – |
